Where “and” joins values, the source holds several entries; their conditions need not be identical. Equal entries are not always repeated. Where two headings read alike, the source gives them in different places.
Legend:
[1] = tested on: head and neck squamous cell carcinoma (HNSCC) tumor tissue; assay: Quantitative fluorescence immunohistochemical analysis of EF5 binding in HNSCC tumor sections of patients; assay type: in vivo, human; parameters: key to Maximum CF95 Mean: % of CRB (maximal EF3 binding), scale 0-100%
Description: EF5 Administration. The National Cancer Institute, Division of Cancer Treatment supplied EF5 in 100 mL vials containing an aqueous solution of 3 mg/mL EF5 also containing 5% dextrose and 2.4% ethanol. This EF5 solution was administered through a peripheral IV catheter, 24-48 hours before surgery at a rate no greater than 350 mL/hr and to a total dose of 9-21 mg/kg. Blood samples for drug levels were obtained before and 1 hour after the completion of drug administration, and at the time of surgery. Calculation of drug time/dose concentration (area under the curve, AUC) allowed the absolute EF5 tissue binding level to be corrected for variations in drug dose and exposure time between patients. Koch, et al., Cancer Chemother. Pharmacol., 2001, 48, 177-187.
Tissue Acquisition and processing for EF5 Binding. 24-48 hours after completion of drug administration, tumors were resected or biopsied and placed in sterile, iced EXCELL 610 medium (JRH Biosciences, Lenexa, Kans.). In collaboration with the pathologist, tissue samples deemed unnecessary for clinical diagnosis were taken to the lab for processing and analysis.
IHC staining methods and quantitative fluorescence microscopy of EF5 in in situ tumor sections and EF3 in tissue cubes for cube reference binding (CRB) were performed as reported previously. Evans, et al., Cancer Res., 2004, 64, 1886-1892. CRB determination is an in vitro technique where tissue cubes are incubated in 200 μM EF3, a sister drug of EF5, under controlled hypoxic conditions for 3 hours. The goal of this procedure was to determine the maximum level of EF3 binding possible for each patient's tumor. This technique allowed normalization of the in situ EF5 binding to each tumor's maximum binding value after correction for the AUC. Koch, et al., Cancer Chemother. Pharmacol., 2001, 48, 177-187. These values were used to calculate the maximum and average ‘% CRB’ value for each tumor, as described previously and briefly below. Evans, et al., Cancer Res., 2000, 60, 2018-2024. Thus, EF5 binding values for each tumor tissue are reported on a scale of 0-100% allowing for comparisons within and between tumors.
Quantitative Image analysis. The quantitative analysis of tumor sections stained for EF3/EF5 has been previously described. Evans, J. Invest. Derm., 2006; Evans, et al., Int. J. Radiat. Oncol., Biol., Phys., 2001, 49, 587-596; Busch, et al., Adv Exp Med. Biol., 2003, 510, 37-43. Briefly, tissue sections were counterstained with Hoechst 33342 to identify the location of intact nuclei. These images were used to create bitmaps in order to generate binary masks of viable tissue regions. Masked regions of each section were analyzed for EF5-dependent immunofluorescence intensity using routines written in MatLab (The MathWorks, Inc., Natick, Mass.). EF5 intensity values of these regions were corrected for tissue section thickness, camera exposure time, relative lamp intensity, EF5 drug exposure (AUC) and CRB. Evans, et al., Cancer Res., 2000, 60, 2018-2024; Evans, et al., Int. J. Radiat. Oncol., Biol., Phys., 2001, 49, 587-596; Evans, et al, Clin. Cancer Res., 2004, 10, 8177-8184; Koch, et al., Cancer Chemother. Pharmacol., 2001, 48, 177-187. Data were then summarized by generating histograms of all positive pixels in the masked image, which were then converted into a cumulative frequency plot. The number of pixels at or below a given binding level can be identified from this plot. For example, CF95=20% would mean that 95% of the EF5 values in the image were at or below 20% of CRB. Terms to describe tissue oxygenation based on EF5 studies have been approximated by data from in vitro studies (Table 1). Koch, Method Enzymol., 2002, 352, 3-31. Normoxic conditions correspond to a CF95≈1%; for modestly/mildly hypoxic conditions, CF95≈3%; for moderately hypoxic conditions, CF95≈10%; for severely hypoxic conditions, CF95≈30%, and for anoxia, the CF95100%. The pO2 corresponding to these descriptive terms is found in Table 1. […]

[2] = EF5-related toxicity in patients after IV EF5 administration; assay type: in vivo, human; conditions: 22 HNSCC patients
Text: Human Subjects. The Institutional Review Board of the University of Pennsylvania Clinical Trials and Scientific Monitoring Committee at the University of Pennsylvania Abramson Cancer Center and the Cancer Therapeutics Evaluation Program of the National Cancer Institute approved this prospective trial of EF5. All patients signed an approved consent form for both the study and for privacy (HIPPA). Patients of all ethnic and gender groups were included. Eligible patients were those undergoing resection or biopsy of a HNSCC as clinically indicated. Exclusion criteria included patients with a history of grade III or IV peripheral neuropathy, pregnant or nursing patients and patients <18 years old. Coleman, et al., Int. J. Radiat. Oncol., Biol., Phys., 1990, 18, 389-393. EF5 Administration. The National Cancer Institute, Division of Cancer Treatment supplied EF5 in 100 mL vials containing an aqueous solution of 3 mg/mL EF5 also containing 5% dextrose and 2.4% ethanol. This EF5 solution was administered through a peripheral IV catheter, 24-48 hours before surgery at a rate no greater than 350 mL/hr and to a total dose of 9-21 mg/kg. Blood samples for drug levels were obtained before and 1 hour after the completion of drug administration, and at the time of surgery. […]

hypoxic cells = conditions: cited from earlier work
HNSCC = conditions: meta-analysis of trials; cited from earlier work
HNSCC hypoxic tumors = conditions: 45 HNSCC patients, adjuvant cisplatin with tirapazamine; cited from earlier work

O=C(Cn1ccnc1[N+](=O)[O-])NCC(F)(F)C(F)(F)F [EF5]
Maximum CF95 Mean ([1]; Age <60 y (11)): 25.66 | Maximum CF95 Mean ([1]; Age ≧60 y (11)): 21.11 | Maximum CF95 Mean ([1]; All patients (22)): 23.38 | Maximum CF95 Mean ([1]; Differentiation: Moderate (10)): 20.00 | Maximum CF95 Mean ([1]; Differentiation: Moderate to poor, poor (7)): 35.87 | Maximum CF95 Mean ([1]; Differentiation: Well, well to moderate (5)): 12.65 | Maximum CF95 Mean ([1]; Gender: Men (18)): 26.74 | Maximum CF95 Mean ([1]; Gender: Women (4)): 8.27 | Maximum CF95 Mean ([1]; Nodal stage N0-N1 (15)): 17.96 | Maximum CF95 Mean ([1]; Nodal stage N2-N3 (7)): 35.00 | EF5 binding average CF95 ([1]; individual patient tumor, average of all tissue sections, biopsy 24-48 h after EF5 IV 9-21 mg/kg): 0.8 % CRB and 0.9 % CRB and 1.9 % CRB and 1.1 % CRB and 4.2 % CRB and 5.6 % CRB and 6.2 % CRB and 6.1 % CRB and 6.4 % CRB and 10.8 % CRB and 16.0 % CRB and 19.6 % CRB and 18.7 % CRB and 12.5 % CRB and 26.0 % CRB and 14.2 % CRB and 23.0 % CRB and 36.9 % CRB and 38.5 % CRB and 34.5 % CRB and 0.4 % CRB and 1.3 % CRB | EF5 binding maximum CF95 ([1]; individual patient tumor, brightest binding of all tissue sections, biopsy 24-48 h after EF5 IV 9-21 mg/kg): 1.4 % CRB (2×) and 2.8 % CRB and 6.0 % CRB and 7.9 % CRB and 8.2 % CRB and 8.9 % CRB and 10.0 % CRB and 16.4 % CRB and 17.8 % CRB and 19.4 % CRB and 23.1 % CRB and 25.4 % CRB and 30.7 % CRB and 35.8 % CRB and 36.0 % CRB and 61.7 % CRB and 66.0 % CRB and 66.5 % CRB and 66.6 % CRB and 1.2 % CRB and 1.3 % CRB | EF5-related grade 1 and 2 toxicity [2]: One patient each experienced EF5-related grade 1 and 2 toxicity | EF5-related grade 3 or 4 toxicity ([2]; 30 days following EF5 administration): no episodes of EF5-related grade 3 or 4 toxicity | Maximum EF5 binding (%) (hypoxic cells; Anoxia, pO2 0%): 100% | Maximum EF5 binding (%) (hypoxic cells; Moderate hypoxia, pO2 0.5% (3.8 mm Hg)): 10% | Maximum EF5 binding (%) (hypoxic cells; Modest (mild) hypoxia, pO2 2.5% (19 mm Hg)): 3% | Maximum EF5 binding (%) (hypoxic cells; Normoxia, pO2 10% (76 mm Hg)): 1% | Maximum EF5 binding (%) (hypoxic cells; Severe hypoxia, pO2 0.1% (0.76 mm Hg)): 30%

COCC(O)Cn1ccnc1[N+](=O)[O-] (stereo not drawn) [misonidazole]
Effectiveness as hypoxic cell sensitizer (HNSCC): could be identified in a subset of patients

Nc1n[n+]([O-])c2ccccc2[n+]1[O-] [tirapazamine]
Outcome (local-regional failure) of patients with hypoxic tumors (HNSCC hypoxic tumors): did as well as those with oxic tumors
